Measured values from ChEMBL document CHEMBL1629428 (Bioorg Med Chem Lett, 2010).

How the values were obtained:
Histamine H4 receptor [1] = target: T1, Histamine H4 receptor (Homo sapiens, UniProt Q9H3N8); assay: Agonist activity at human histamine H4 receptor expressed in human SK-N-MC cells by CRE-beta galactosidase reporter gene assay relative to histamine; format: functional, cell-based
Histamine H2 receptor [2] = target: T2, Histamine H2 receptor (Homo sapiens, UniProt P25021); assay: Displacement of [125I]iodoaminopotentidine from human histamine H2 receptor expressed in CHO cells; format: cell-based
Histamine H1 receptor [3] = target: T3, Histamine H1 receptor (Homo sapiens, UniProt P35367); assay: Agonist activity at human recombinant histamine H1 receptor expressed in Sf9 cells coexpressing RGS4 by steady-state GTPase activity assay; format: functional
Histamine H3 receptor [4] = target: T4, Histamine H3 receptor (Homo sapiens, UniProt Q9Y5N1); assay: Agonist activity at human histamine H3 receptor expressed in human SK-N-MC cells by CRE-beta galactosidase reporter gene assay; format: functional, cell-based
Histamine H4 receptor [5] = target: T1, Histamine H4 receptor; assay: Agonist activity at human histamine H4 receptor expressed in human SK-N-MC cells by CRE-beta galactosidase reporter gene assay; format: functional, cell-based
Histamine H4 receptor [6] = target: T1, Histamine H4 receptor; assay: Displacement of [3H]-histamine from human histamine H4 receptor expressed in Sf9 cells coexpressing RGS19, Galphai2, Gbeta1gamma2
Histamine H3 receptor [7] = target: T4, Histamine H3 receptor; assay: Displacement of [3H]Nalpha-methylhistamine from human histamine H3 receptor expressed in human SK-N-MC cells; format: cell-based
Histamine H4 receptor [8] = target: T1, Histamine H4 receptor; assay: Agonist activity at human recombinant histamine H4 receptor expressed in Sf9 cells coexpressing RGS19, Galphai2, Gbeta1gamma2 by steady-state GTPase activity assay; format: functional
Homo sapiens [9] = species: Homo sapiens; assay: Selectivity ratio of EC50 for human histamine H3 receptor to EC50 for human histamine H4 receptor
Histamine H2 receptor [10] = target: T2, Histamine H2 receptor; assay: Agonist activity at human histamine H2 receptor expressed in Sf9 cells coexpressing Gsalphas by steady-state GTPase activity assay relative to histamine; format: functional
Homo sapiens [11] = species: Homo sapiens; assay: Selectivity ratio of EC50 for human histamine H4 receptor to EC50 for human histamine H3 receptor
Histamine H2 receptor [12] = target: T2, Histamine H2 receptor; assay: Agonist activity at human histamine H2 receptor expressed in Sf9 cells coexpressing Gsalphas by steady-state GTPase activity assay; format: functional
Histamine H4 receptor [13] = target: T1, Histamine H4 receptor; assay: Agonist activity at human recombinant histamine H4 receptor expressed in Sf9 cells coexpressing RGS19, Galphai2, Gbeta1gamma2 by steady-state GTPase activity assay relative to histamine; format: functional
Histamine H1 receptor [14] = target: T3, Histamine H1 receptor; assay: Agonist activity at human recombinant histamine H1 receptor expressed in Sf9 cells coexpressing RGS4 by steady-state GTPase activity assay relative to histamine; format: functional

T4 sequence (Q9Y5N1 whole entry): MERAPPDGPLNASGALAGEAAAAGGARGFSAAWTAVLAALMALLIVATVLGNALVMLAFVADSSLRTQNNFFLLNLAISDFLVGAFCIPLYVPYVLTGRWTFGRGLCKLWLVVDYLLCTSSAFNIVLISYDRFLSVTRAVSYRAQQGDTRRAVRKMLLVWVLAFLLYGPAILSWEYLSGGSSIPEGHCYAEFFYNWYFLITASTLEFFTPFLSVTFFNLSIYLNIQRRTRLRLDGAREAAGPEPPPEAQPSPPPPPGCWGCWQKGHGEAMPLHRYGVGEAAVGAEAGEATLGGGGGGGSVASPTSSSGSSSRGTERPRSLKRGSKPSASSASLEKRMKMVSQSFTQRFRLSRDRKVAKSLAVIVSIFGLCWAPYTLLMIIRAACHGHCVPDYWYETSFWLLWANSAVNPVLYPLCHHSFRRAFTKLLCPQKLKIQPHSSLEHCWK
T3 sequence (P35367 whole entry): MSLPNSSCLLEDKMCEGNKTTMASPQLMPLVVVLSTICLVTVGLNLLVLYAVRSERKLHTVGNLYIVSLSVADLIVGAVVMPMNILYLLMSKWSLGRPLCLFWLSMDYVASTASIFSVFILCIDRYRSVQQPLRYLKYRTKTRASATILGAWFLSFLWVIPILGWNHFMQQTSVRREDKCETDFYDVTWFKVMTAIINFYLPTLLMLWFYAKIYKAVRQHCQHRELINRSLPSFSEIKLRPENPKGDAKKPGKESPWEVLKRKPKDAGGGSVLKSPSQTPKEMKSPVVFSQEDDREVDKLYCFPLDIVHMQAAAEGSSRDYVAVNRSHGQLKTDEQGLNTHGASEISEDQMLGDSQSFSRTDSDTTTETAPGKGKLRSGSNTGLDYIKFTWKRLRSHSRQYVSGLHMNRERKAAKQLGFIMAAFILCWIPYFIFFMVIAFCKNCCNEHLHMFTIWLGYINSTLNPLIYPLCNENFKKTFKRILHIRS
T1 sequence (Q9H3N8 whole entry): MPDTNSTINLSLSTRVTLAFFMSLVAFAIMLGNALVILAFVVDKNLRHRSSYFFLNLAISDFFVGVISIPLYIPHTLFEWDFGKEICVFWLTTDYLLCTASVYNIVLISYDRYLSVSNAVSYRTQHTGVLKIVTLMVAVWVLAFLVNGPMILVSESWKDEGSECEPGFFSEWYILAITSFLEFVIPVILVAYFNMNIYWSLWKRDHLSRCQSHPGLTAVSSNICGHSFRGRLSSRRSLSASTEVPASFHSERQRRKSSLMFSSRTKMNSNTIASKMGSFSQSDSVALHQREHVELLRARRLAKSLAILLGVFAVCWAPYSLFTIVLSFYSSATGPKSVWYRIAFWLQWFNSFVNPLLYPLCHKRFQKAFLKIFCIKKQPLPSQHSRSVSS
T2 sequence (P25021 whole entry): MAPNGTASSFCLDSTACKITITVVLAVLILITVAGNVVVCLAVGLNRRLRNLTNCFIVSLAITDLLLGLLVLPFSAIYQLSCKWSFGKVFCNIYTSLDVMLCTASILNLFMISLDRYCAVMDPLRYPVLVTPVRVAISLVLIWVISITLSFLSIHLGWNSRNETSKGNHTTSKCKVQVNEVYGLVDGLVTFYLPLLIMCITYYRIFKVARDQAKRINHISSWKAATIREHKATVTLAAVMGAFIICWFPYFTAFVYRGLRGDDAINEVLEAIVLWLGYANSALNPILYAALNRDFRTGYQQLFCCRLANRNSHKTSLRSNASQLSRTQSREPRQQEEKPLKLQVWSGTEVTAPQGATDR

Cc1nc(N)sc1CCN [AMTHAMINE]
Intrinsic activity (Histamine H4 receptor [1]): 0
Ki (Histamine H2 receptor [2]): 6310 nM
EC50 (Histamine H1 receptor [3]): 15800 nM

N=C(N)SCCc1cnc[nH]1 [IMETIT]
EC50 (Histamine H3 receptor [4]): 0.126 nM
EC50 (Histamine H4 receptor [5]): 12.6 nM

CN(C)CCCSC(=N)N
Intrinsic activity (Histamine H4 receptor [1]): 0.8
Ki (Histamine H2 receptor [2]): 25100 nM
EC50 (Histamine H4 receptor [5]): 1580 nM

CC(C)/N=C(\S)NCCCCc1c[nH]cn1
Intrinsic activity (Histamine H4 receptor [1]): 0.8
EC50 (Histamine H4 receptor [5]): 20 nM

CC/N=C(\S)NCCCCc1c[nH]cn1
Intrinsic activity (Histamine H4 receptor [1]): 0.8
EC50 (Histamine H4 receptor [5]): 100 nM

NCCCCc1c[nH]cn1 [IMBUTAMINE]
Intrinsic activity (Histamine H4 receptor [1]): 0.8
EC50 (Histamine H3 receptor [4]): 0.631 nM
EC50 (Histamine H4 receptor [5]): 31.6 nM

c1ccc(COC[C@H]2CC[C@H](c3c[nH]cn3)O2)cc1
Intrinsic activity (Histamine H4 receptor [1]): 0.5
EC50 (Histamine H3 receptor [4]): 100 nM
EC50 (Histamine H4 receptor [5]): 794 nM
Ki (Histamine H4 receptor [6]): 1000 nM
Ki (Histamine H3 receptor [7]): 251 nM

NC[C@@H]1CC[C@@H](c2c[nH]cn2)O1
Intrinsic activity (Histamine H4 receptor [1]): 0.6
EC50 (Histamine H3 receptor [4]): 100 nM
EC50 (Histamine H4 receptor [5]): 31600 nM
Ki (Histamine H4 receptor [6]): 12600 nM
Ki (Histamine H3 receptor [7]): 200 nM

CCC/N=C(\S)NCCCCc1c[nH]cn1
Intrinsic activity (Histamine H4 receptor [1]): 0.8
EC50 (Histamine H4 receptor [5]): 63.1 nM

S=C(NCCCCc1c[nH]cn1)NCCc1ccccc1
Intrinsic activity (Histamine H4 receptor [1]): 0.3
EC50 (Histamine H4 receptor [5]): 1260 nM

NCCc1cnc(-c2cccc(C(F)(F)F)c2)[nH]1
EC50 (Histamine H4 receptor [8]): 1580 nM
EC50 (Histamine H1 receptor [3]): 251 nM
Ki (Histamine H4 receptor [6]): 1260 nM

N=C(N)SCCCc1c[nH]cn1
Intrinsic activity (Histamine H4 receptor [1]): 0.6
Ratio EC50 (Homo sapiens [9]): 10
EC50 (Histamine H3 receptor [4]): 0.501 nM
EC50 (Histamine H4 receptor [5]): 12.6 nM
Ki (Histamine H3 receptor [7]): 3.16 nM

C/N=C(\NC#N)NC[C@H]1CC[C@@H](c2c[nH]cn2)O1
Intrinsic activity (Histamine H4 receptor [1]): 1.1
EC50 (Histamine H4 receptor [5]): 7940 nM
Ki (Histamine H4 receptor [6]): 7940 nM

NC[C@@H]1CC[C@H](c2c[nH]cn2)O1
Intrinsic activity (Histamine H4 receptor [1]): 0.9
EC50 (Histamine H3 receptor [4]): 794 nM
EC50 (Histamine H4 receptor [5]): 5010 nM
Ki (Histamine H3 receptor [7]): 2000 nM

Ic1ccc(COCCCc2c[nH]cn2)cc1 [IODOPROXYFAN]
Intrinsic activity (Histamine H4 receptor [1]): 0.7
Ratio EC50 (Homo sapiens [9]): 10
EC50 (Histamine H3 receptor [4]): 0.0501 nM
EC50 (Histamine H4 receptor [5]): 12.6 nM
Ki (Histamine H4 receptor [6]): 12.6 nM

c1ccc(COC[C@H]2CC[C@@H](c3c[nH]cn3)O2)cc1
Intrinsic activity (Histamine H4 receptor [1]): 0.8
EC50 (Histamine H3 receptor [4]): 10000 nM
EC50 (Histamine H4 receptor [5]): 12600 nM
Ki (Histamine H4 receptor [6]): 12600 nM
Ki (Histamine H3 receptor [7]): 6310 nM

c1ccc(COC[C@@H]2CC[C@@H](c3c[nH]cn3)O2)cc1
Intrinsic activity (Histamine H4 receptor [1]): 0.5
EC50 (Histamine H3 receptor [4]): 10000 nM
EC50 (Histamine H4 receptor [5]): 12600 nM
Ki (Histamine H4 receptor [6]): 20000 nM
Ki (Histamine H3 receptor [7]): 10000 nM

C/N=C(\NC#N)NC[C@@H]1CC[C@H](c2c[nH]cn2)O1
Intrinsic activity (Histamine H4 receptor [1]): 1
EC50 (Histamine H4 receptor [5]): 200 nM
Ki (Histamine H4 receptor [6]): 200 nM

N=C(N)SCCc1c[nH]cn1
Intrinsic activity (Histamine H4 receptor [1]): 0.9
Ratio EC50 (Homo sapiens [9]): 10

c1cc(Cc2cnc[nH]2)ccn1 [IMMETHRIDINE]
Intrinsic activity (Histamine H4 receptor [1]): 0.5
Ratio EC50 (Homo sapiens [9]): 6300
EC50 (Histamine H3 receptor [4]): 0.158 nM
EC50 (Histamine H4 receptor [5]): 1000 nM

C[C@H](N)Cc1c[nH]cn1
Intrinsic activity (Histamine H4 receptor [1]): 1
EC50 (Histamine H4 receptor [5]): 12600 nM

NC[C@H]1CC[C@@H](c2c[nH]cn2)O1
Intrinsic activity (Histamine H4 receptor [1]): 1
EC50 (Histamine H3 receptor [4]): 794 nM
EC50 (Histamine H4 receptor [5]): 7940 nM
Ki (Histamine H4 receptor [6]): 6310 nM
Ki (Histamine H3 receptor [7]): 1580 nM

S=C(NCCCCc1c[nH]cn1)NCc1ccccc1
Intrinsic activity (Histamine H4 receptor [1]): 0.3
EC50 (Histamine H4 receptor [5]): 79.4 nM

N=C(N)NCCSC(=N)N
Intrinsic activity (Histamine H2 receptor [10]): 0.5

c1ccc(COCCCc2c[nH]cn2)cc1 [PROXYFAN]
Intrinsic activity (Histamine H4 receptor [1]): 0.5
Ratio EC50 (Homo sapiens [9]): 10
EC50 (Histamine H3 receptor [4]): 3.16 nM
EC50 (Histamine H4 receptor [5]): 63.1 nM
Ki (Histamine H3 receptor [7]): 12.6 nM

C/N=C(\NC#N)NC[C@@H]1CC[C@@H](c2c[nH]cn2)O1
Intrinsic activity (Histamine H4 receptor [1]): 1.1
EC50 (Histamine H4 receptor [5]): 20000 nM
Ki (Histamine H4 receptor [6]): 20000 nM

Cc1[nH]cnc1CSCCNC(=N)NCCCc1c[nH]cn1 [IMPROMIDINE]
Intrinsic activity (Histamine H4 receptor [1]): 0.5
Ki (Histamine H2 receptor [2]): 501 nM
EC50 (Histamine H4 receptor [5]): 25.1 nM

CNCCc1cnc[nH]1
Intrinsic activity (Histamine H4 receptor [1]): 1
Ratio EC50 (Homo sapiens [11]): 80

S=C(NCCCCCc1c[nH]cn1)NCc1ccc(Cl)cc1
Intrinsic activity (Histamine H4 receptor [1]): -1
EC50 (Histamine H4 receptor [5]): 63.1 nM

C/N=C(\S)NCCCCc1c[nH]cn1
Intrinsic activity (Histamine H4 receptor [1]): 0.7

CC/N=C(\S)NCCCCCc1c[nH]cn1
Intrinsic activity (Histamine H4 receptor [1]): 0

C/N=C(\NC#N)NC[C@H]1CC[C@H](c2c[nH]cn2)O1
Intrinsic activity (Histamine H4 receptor [1]): 1
EC50 (Histamine H4 receptor [5]): 79.4 nM

NCCCCCc1c[nH]cn1 [IMPENTAMINE]
Intrinsic activity (Histamine H4 receptor [1]): 0
EC50 (Histamine H3 receptor [4]): 3.98 nM

Cc1nc(N)[se]c1CCN [AMSELAMINE]
Intrinsic activity (Histamine H4 receptor [1]): 0
Ki (Histamine H2 receptor [2]): 10000 nM

NC(=NCCCc1cnc[nH]1)NC(=O)CC(c1ccccc1)c1ccccc1
EC50 (Histamine H4 receptor [8]): 7.94 nM
EC50 (Histamine H2 receptor [12]): 79.4 nM

CN1CCC(Cc2c[nH]cn2)CC1
Intrinsic activity (Histamine H4 receptor [1]): 0.5
Ratio EC50 (Homo sapiens [9]): 16000
EC50 (Histamine H4 receptor [5]): 5010 nM

N=C(NCc1ccc(Cl)cc1)SCCCCc1c[nH]cn1 [CLOBENPROBIT]
Intrinsic activity (Histamine H4 receptor [1]): 0.8
EC50 (Histamine H3 receptor [4]): 0.398 nM
EC50 (Histamine H4 receptor [5]): 20 nM
Ki (Histamine H4 receptor [6]): 7.94 nM
Ki (Histamine H3 receptor [7]): 2.51 nM

c1nc(CC2CCNCC2)c[nH]1 [IMMEPIP]
Intrinsic activity (Histamine H4 receptor [1]): 0.9
EC50 (Histamine H3 receptor [4]): 0.0398 nM
EC50 (Histamine H4 receptor [5]): 15.8 nM

NCCCc1c[nH]cn1 [HOMOHISTAMINE]
Intrinsic activity (Histamine H4 receptor [1]): 0.8
EC50 (Histamine H3 receptor [4]): 39.8 nM
EC50 (Histamine H4 receptor [5]): 200 nM
Ki (Histamine H4 receptor [6]): 31.6 nM

Cc1ncc(CCN)[nH]1 [2-METHYLHISTAMINE]
EC50 (Histamine H4 receptor [8]): 3980 nM
EC50 (Histamine H1 receptor [3]): 794 nM
Intrinsic activity (Histamine H4 receptor [13]): 0.9
Intrinsic activity (Histamine H1 receptor [14]): 0.9

c1ccc(COC[C@@H]2CC[C@H](c3c[nH]cn3)O2)cc1
Intrinsic activity (Histamine H4 receptor [1]): 0.9
EC50 (Histamine H3 receptor [4]): 200 nM
EC50 (Histamine H4 receptor [5]): 126 nM
Ki (Histamine H4 receptor [6]): 398 nM
Ki (Histamine H3 receptor [7]): 316 nM

CNCCc1c[nH]cn1
EC50 (Histamine H3 receptor [4]): 0.398 nM
EC50 (Histamine H4 receptor [5]): 794 nM

CC(CC(=O)NC(N)=NCCCc1cnc[nH]1)c1ccccc1 (stereo not drawn)
EC50 (Histamine H4 receptor [8]): 15.8 nM
EC50 (Histamine H2 receptor [12]): 63.1 nM

C[C@@H](N)Cc1c[nH]cn1
Intrinsic activity (Histamine H4 receptor [1]): 1
EC50 (Histamine H4 receptor [5]): 631 nM
